Laboratory results published in US7230104B2, “Fungicidal 5-phenyl substituted 2-(cyanoamino) pyrimidines” (priority 2000, dated 2007).
Converted amounts (≈) assume the structure as drawn.

Legend:
Rhizoctonia solani = settings: 10 ppm; 3–7 days of incubation
Method: After 3–7 days of incubation, inhibition of mycelial growth is recorded using the following scale: The data obtained are shown in Table VI.

Venturia inaequalis = assay: Evaluation of in vivo fungicidal activity, Apple Scab (AS); settings: plants sprayed with 200 ppm test solution, inoculated the same day
[1] = test system: Pyricularia grisea sp. oryzae; format: in vivo; settings: Rice Blast; plants sprayed with 200 ppm test solution, inoculated the same day
[2] = Evaluation of in vivo fungicidal activity, Grape downy mildew (GDM); design: species or system Uniclnula necator; settings: plants sprayed with 200 ppm test solution, inoculated the same day
Pyricularia Oryzae = format: cell-based; settings: lowest concentration causing total inhibition of mycelial growth; 6–12 days incubation at 18 to 25° C.; visual inspection

Row | SMILES | Rhizoctonia solani (Rice sheath blight) inhibition of mycelial growth rating (Rhizoctonia solani) | AS disease control rating (Venturia inaequalis) | RB disease control rating [1] | GDM disease control rating [2] | MIC (Pyricularia Oryzae)
1 | CC(Nc1nc(N(C)C#N)nc(Cl)c1-c1c(F)cc(F)cc1F)C(F)(F)F (centres unmarked) [Example 1, 2-(N-cyano-N-methylamino)-4-chloro-5-(2,4,6-trifluorophenul)-6-(1,1,1-trifluoroprop-2-ylamino)-pyrimidine] | 7 |  |  |  | 
2 | CCCCN(C#N)c1nc(Cl)c(-c2c(F)cc(F)cc2F)c(NC(C)C(F)(F)F)n1 (centres unmarked) [Example 2] |  | 0 (0) | 0 (0) | 0 (0) | 
3 | CC(C)Nc1nc(N(C)C#N)nc(Cl)c1-c1c(F)cc(F)cc1F [Example 3] |  | 7 (90–95) | 5 (60–74) | 7 (90–95) | 3.13 µg/mL (≈ 8.8 µM)
4 | CN(C#N)c1nc(Cl)c(-c2c(F)ccc(F)c2F)c(NC2CCCC2)n1 [Example 4] | 7 | 5 (60–74) | 3 (30–44) | 3 (30–44) | >100 µg/mL
5 | CC1CCN(c2nc(N(C)C#N)nc(Cl)c2-c2c(F)cccc2Cl)CC1 [Example 5] | 0 | 9 (100) | 4 (45–59) | 0 (0) | 25 µg/mL (≈ 63.4 µM)
6 | CCC(C)Nc1nc(N(C)C#N)nc(Cl)c1-c1c(F)cccc1Cl (centres unmarked) [Example 6] | 0 | 9 (100) | 6 (75–89) | 3 (30–44) | 6.25 µg/mL (≈ 17 µM)
7 | CC1CCN(c2nc(N(C)C#N)nc(Cl)c2-c2c(F)cc(F)cc2F)CC1 [Example 7] | 0 |  |  |  | 100 µg/mL (≈ 253 µM)
8 | CC(N(C)c1nc(N(C)C#N)nc(Cl)c1-c1c(F)cc(F)cc1F)C(F)(F)F (centres unmarked) [Example 8] | 7 |  |  |  | 
